Measured values taken from article PMC12396409, “Screening and hit evaluation of a microbial metabolite library against the pathogenic Plasmodium falciparum and Toxoplasma gondii parasites” (International Journal for Parasitology: Drugs and Drug …, 2025).
Where two headings read alike, the source gives them in different places.

Columns and labels:
[1] = system: T. gondii RH strain (RH-Tub-eYFP) tachyzoites; experiment: microbe, parasite or virus in culture; type: cell-based, Toxoplasma gondii; settings: 72 h; for percent parasite growth at 2 µg/mL: Toxoplasma gondii
[2] = system: P. falciparum 3D7 parasites; experiment: P. falciparum growth inhibition assay, 1-cycle (72 h treatment), SYBR DNA staining (library screen at 2 μg/mL and dose-response); type: cell-based, Plasmodium falciparum
[3] = system: P. falciparum 3D7 parasites; experiment: P. falciparum growth inhibition assay, 2-cycle (120 h treatment), delayed-death screen and dose-response; type: cell-based, Plasmodium falciparum; settings: for activity at 2 µg/mL: Plasmodium falciparum
[4] = T. gondii, screen at 2 μg/mL, replicate 1
[5] = T. gondii, screen at 2 μg/mL, replicate 2
[6] = P. falciparum, 72 h, screen at 2 μg/mL, replicate 1
[7] = P. falciparum, 72 h, screen at 2 μg/mL, replicate 2
[8] = P. falciparum, 120 h, screen at 2 μg/mL, replicate 1
[9] = P. falciparum, 120 h, screen at 2 μg/mL, replicate 2
[10] = library screen at 2 μg/mL, % growth, replicate 1
[11] = library screen at 2 μg/mL, % growth, replicate 2
[12] = library screen at 2 μg/mL, 72 h, % growth, replicate 1
[13] = library screen at 2 μg/mL, 72 h, % growth, replicate 2
[14] = library screen at 2 μg/mL, 120 h, % growth, replicate 1
[15] = library screen at 2 μg/mL, 120 h, % growth, replicate 2

Molecule CCCCC[C@@H]1CCCCC[C@@H](O)C[C@H](O)[C@H](O)/C=C/C(=O)O1 [Sch 725674] has a Tg_72h_%Growth_Rep1 ([1]; T. gondii, parasite screen 2 μg/mL, % growth, replicate 1) of 110.92%, a Tg_72h_%Growth_Rep2 ([1]; T. gondii, parasite screen 2 μg/mL, % growth, replicate 2) of 69.04% and a Pf_72h_%Growth_Rep1 ([2]; P. falciparum, 72 h, parasite screen 2 μg/mL, % growth, replicate 1) of 94.68%. It also gave a Pf_72h_%Growth_Rep2 ([2]; P. falciparum, 72 h, parasite screen 2 μg/mL, % growth, replicate 2) of 136.05%, a Pf_120h_%Growth_Rep1 ([3]; P. falciparum, 120 h, parasite screen 2 μg/mL, % growth, replicate 1) of 118.17% and a Pf_120h_%Growth_Rep2 ([3]; P. falciparum, 120 h, parasite screen 2 μg/mL, % growth, replicate 2) of 96.28%.

C=Cc1cc(OC)c2c(c1)c(=O)oc1c2cc(OC)c2c(O)ccc([C@H]3O[C@@H](C)[C@@H](O)[C@](C)(O)[C@@H]3O)c21 [Chrysomycin A] was tested, and the Tg_72h_%Growth_Rep1 [1, 4] was 53.94%, the Tg_72h_%Growth_Rep2 [1, 5] was 65.86% and the “1) Growth (%) at 72 h” value ([2]; P. falciparum, 2 μg/mL, 72 h) was 36.94%. It also gave a Mean ([2]; P. falciparum, 72 h, 2 μg/mL, mean of both replicates, growth (% of control)) of 36.94, a Pf_72h_%Growth_Rep1 [2, 6] of 16.21% and a Pf_72h_%Growth_Rep2 [2, 7] of 57.66%. For the same molecule, the “2) Growth (%) at 120 h” value ([3]; P. falciparum, 2 μg/mL, 120 h) was -1.07%, the Pf_120h_%Growth_Rep1 [3, 8] was 6.31% and the Pf_120h_%Growth_Rep2 [3, 9] was -8.44%.

CCCCCC(O)C1C(=O)OC(C)C(O)C=CC=CC=CC=CC=C(C)C(O)C(O)C(O)CC(O)CC(O)CC(O)CC(O)CC1O (stereo not shown) [BIA-L1613] gave a Tg_72h_%Growth_Rep1 ([1]; T. gondii RH, library screen at 2 μg/mL, % growth, replicate 1) of 108.01%, a Tg_72h_%Growth_Rep2 ([1]; T. gondii RH, library screen at 2 μg/mL, % growth, replicate 2) of 85.53% and a Pf_72h_%Growth_Rep1 ([2]; P. falciparum 3D7, 72 h, library screen at 2 μg/mL, % growth, replicate 1) of 78.48%. For the same molecule, the Pf_72h_%Growth_Rep2 ([2]; P. falciparum 3D7, 72 h, library screen at 2 μg/mL, % growth, replicate 2) was 58.30%, the Pf_120h_%Growth_Rep1 ([3]; P. falciparum 3D7, 120 h, library screen at 2 μg/mL, % growth, replicate 1) was 95.83% and the Pf_120h_%Growth_Rep2 ([3]; P. falciparum 3D7, 120 h, library screen at 2 μg/mL, % growth, replicate 2) was 112.04%.

CC1=CCCC(C)C(O)C(C)C(O)CCC=CC(C)C(O)C=CC(C)C(O)C(C)=CC(O[C@H]2O[C@H](CO)[C@@H](O)[C@H](O)[C@@H]2O)C(O)CC(O)CC(O)CC(O)C(C)C(O)C(C)C(O)CC(O)CC(O)C=CCC(C(C)C(O)CCCN)OC1=O (stereo partly shown) [Desertomycin A] showed a Tg_72h_%Growth_Rep1 [1, 10] of 97.84%, a Tg_72h_%Growth_Rep2 [1, 11] of 106.51% and a Pf_72h_%Growth_Rep1 [2, 12] of 84.25%. It also gave a Pf_72h_%Growth_Rep2 [2, 13] of 90.28%, a Pf_120h_%Growth_Rep1 [3, 14] of 93.27% and a Pf_120h_%Growth_Rep2 [3, 15] of 101.55%.

With CC[C@H]1CCC[C@H](O[C@H]2CC[C@H](N(C)C)[C@@H](C)O2)[C@@H](C)C(=O)C2=C[C@@H]3[C@@H](C=C[C@@H]4C[C@@H](O[C@@H]5O[C@@H](C)[C@H](OC)[C@@H](OC)[C@H]5OC)C[C@@H]34)[C@@H]2CC(=O)O1 [Spinosyn A] the percent parasite growth at 2 µg/mL ([1]; T. gondii, parasite screen 2 μg/mL, % growth, replicate 1, read-out: Tg_72h_%Growth_Rep1) was 56.8%, the percent parasite growth at 2 µg/mL ([1]; T. gondii, parasite screen 2 μg/mL, % growth, replicate 2, read-out: Tg_72h_%Growth_Rep2) was 95.1% and the activity at 2 µg/mL ([2]; Plasmodium falciparum, 3D7, 72 h, P. falciparum, 72 h, parasite screen 2 μg/mL, % growth, replicate 1, read-out: Pf_72h_%Growth_Rep1) was 5.81%. For the same molecule, the activity at 2 µg/mL ([2]; Plasmodium falciparum, 3D7, 72 h, P. falciparum, 72 h, parasite screen 2 μg/mL, % growth, replicate 2, read-out: Pf_72h_%Growth_Rep2) was 3.23%, the IC50 ([2]; Plasmodium falciparum, 3D7, 72 h treatment, mean ± S.D., n ≥ 3, read-out: IC50 (μM), P. falciparum) was greater than 1 µM and the activity at 2 µg/mL ([3]; 3D7, 120 h, P. falciparum, 120 h, parasite screen 2 μg/mL, % growth, replicate 1, read-out: Pf_120h_%Growth_Rep1) was 0.89%. For the same molecule, the activity at 2 µg/mL ([3]; 3D7, 120 h, P. falciparum, 120 h, parasite screen 2 μg/mL, % growth, replicate 2, read-out: Pf_120h_%Growth_Rep2) was -4.31%.

OCC1=C[C@@H](N[C@H]2C[C@H](CO)[C@@H](O[C@H]3O[C@@H](CO)[C@H](O)[C@@H](O)[C@@H]3O)[C@H](O)[C@H]2O)[C@H](O)[C@@H](O)[C@@H]1O [Validamycin A] gave a Tg_72h_%Growth_Rep1 [1, 4] of 87.00%, a Tg_72h_%Growth_Rep2 [1, 5] of 98.14% and a Pf_72h_%Growth_Rep1 [2, 6] of 75.67%. The Pf_72h_%Growth_Rep2 [2, 7] was 70.52%, the Pf_120h_%Growth_Rep1 [3, 8] was 167.49% and the Pf_120h_%Growth_Rep2 [3, 9] was 74.14%.

In the case of CC(/C=C/[C@@]1(C)[C@H](C)CCC(=O)[C@@H]1C)=C\Cc1c(O)c(Cl)c(C)c(C=O)c1O [Ascochlorin], the percent parasite growth at 2 µg/mL ([1]; library screen at 2 μg/mL, % growth, replicate 1, read-out: Tg_72h_%Growth_Rep1) is reported as 69.4%, the percent parasite growth at 2 µg/mL ([1]; library screen at 2 μg/mL, % growth, replicate 2, read-out: Tg_72h_%Growth_Rep2) is reported as 87.7% and the activity at 2 µg/mL ([2]; Plasmodium falciparum, 3D7, library screen at 2 μg/mL, 72 h, % growth, replicate 1, read-out: Pf_72h_%Growth_Rep1) is reported as 79.8%. It also gave an activity at 2 µg/mL ([2]; Plasmodium falciparum, 3D7, library screen at 2 μg/mL, 72 h, % growth, replicate 2, read-out: Pf_72h_%Growth_Rep2) of 84.8%, an activity at 2 µg/mL ([3]; 3D7, library screen at 2 μg/mL, 120 h, % growth, replicate 1, read-out: Pf_120h_%Growth_Rep1) of 141% and an activity at 2 µg/mL ([3]; 3D7, library screen at 2 μg/mL, 120 h, % growth, replicate 2, read-out: Pf_120h_%Growth_Rep2) of 86.1%.

CN1C(=O)c2ccccc2-n2c(nc3ccccc3c2=O)[C@@]12O[C@H]2c1ccccc1 [Benzomalvin C] gave a Tg_72h_%Growth_Rep1 [1, 10] of 89.14%, a Tg_72h_%Growth_Rep2 [1, 11] of 100.15% and a Pf_72h_%Growth_Rep1 [2, 12] of 80.29%. It also gave a Pf_72h_%Growth_Rep2 [2, 13] of 84.20%, a Pf_120h_%Growth_Rep1 [3, 14] of 69.94% and a Pf_120h_%Growth_Rep2 [3, 15] of 71.59%.
